Seven compounds from article PMC6964506 (ACS Omega, 2019) can be followed below.

The target in assay [1] is PDE6D/avi-K-RasFMe (Homo sapiens, UniProt O43924). Put plainly: SPR inhibition of PDE6D binding to captured avi-K-RasFMe.
Assay [2] concerns H-RasG12V. Description: H-Ras nanoclustering-FRET. It counts as cell-based. Conditions: HEK cells, 5 μM (FTI-277 0.2 μM), 24 h.
Assay [3] deals with K-RasG12V. Put plainly: K-Ras nanoclustering-FRET. The assay is classed as cell-based. The following applies: HEK cells, 24 h; for dose-dependent effect on K-RasG12V nanoclustering-FRET: various concentrations, compared with 24 and 25.
Assay [4] relates to A375 cells. Put plainly: Tumorosphere viability, drug sensitivity score. The assay is classed as cell-based. The following applies: B-RafV600E mutant A375 spheroids, 72 h, 0 to 20 μM.
For assay [5], the target named is K-RasG12V/PDE6D interaction (Homo sapiens, UniProt O43924). Description: PDE6D/K-Ras interaction by FLIM-FRET in HEK cells. The assay is classed as cell-based. Conditions: 5 μM, 24 h.
K-RasG12V/PDE6D interaction, sequence (O43924 whole entry): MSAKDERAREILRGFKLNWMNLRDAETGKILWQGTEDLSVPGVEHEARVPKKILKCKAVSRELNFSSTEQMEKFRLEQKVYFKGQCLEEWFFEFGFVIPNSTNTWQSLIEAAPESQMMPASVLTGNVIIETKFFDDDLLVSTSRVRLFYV
Assay [6] has as its system Hs 578T cells. Description: Mammosphere formation assay. It counts as cell-based. Conditions: 6 days suspension then 72 h with 5 μM.
Assay [7] deals with NCI-H358 cells. Description: Tumorosphere viability, drug sensitivity score. It counts as cell-based. The following applies: NCI-H358 tumorospheres, 72 h, 0 to 20 μM.
For assay [8], the system named is MDA-MB-231 cells. Put plainly: Mammosphere formation assay. It counts as cell-based. Conditions: MDA-MB-231, 6 days suspension then 72 h with 5 μM.

PDE6D/avi-K-RasFMe, sequence (O43924 whole entry): as above

For `CCOC(=O)C(C)(COP(=O)(OC)OCCCCCCNC(=O)c1ccc(C(=O)OC)c(N)c1)C(=O)CSC(C)=O` (stereo not drawn) [compound 22], in assay [1], the IC50 (in general, the point on the concentration scale where inhibition reaches its midpoint) was 10.27 ± 0.03 µM and binding was characterised by a dissociation constant (Kd) of 7.62 ± 0.02 µM. In addition, in assay [1] (SPR), the “fold lower affinity than analogue 23” value came out at 2.6 fold. The “effect on H-RasG12V nanoclustering-FRET” value in assay [2] is given as “No effect”. In addition, the “dose-dependent effect on K-RasG12V nanoclustering-FRET” value in assay [3] is listed as “significant dose-dependent reduction”.

As to `COC(=O)c1ccc(C(=O)NCCCCCCOP(=O)(OC)OCC(C)(C)C(=O)CSC(C)=O)cc1N` (stereo not drawn) [compound 23], in assay [4], the “activity on spheroid viability (DSS)” value was “inactive”. Moreover, the “effect on K-RasG12V/PDE6D FLIM-FRET” value in assay [5] was “performed as well as 15 and somewhat better than 22”. Further, in assay [2], the “effect on H-RasG12V nanoclustering-FRET” value is given as “No effect”. The “effect on mammosphere formation (SFE)” value in assay [6] was “but not H-RasG12V-mutant Hs 578T-mammosphere formation”. Moreover, the “dose-dependent effect on K-RasG12V nanoclustering-FRET” value in assay [3] is “significant dose-dependent reduction”.

`c1ccc(Cn2c(-c3ccc(OC[C@H](C4CCNCC4)n4c(-c5ccccc5)nc5ccccc54)cc3)nc3ccccc32)cc1` [Deltarasin, reference compound]: the “activity on spheroid viability (DSS)” value in assay [4] and in assay [7] was “equally high activity in both cell lines” each time. Besides, the “effect on H-RasG12V nanoclustering-FRET” value in assay [2] was “reduced FRET of both Ras isoforms about equally”. For the same compound, in assay [3] (5 μM (FTI-277 0.2 μM)), the “effect on K-RasG12V nanoclustering-FRET” value was “reduced FRET of both Ras isoforms about equally”. Also, the IC50 in assay [3] (read-out: IC50 K-Ras nanoclustering-FRET (mean ± SEM), n = 3) came out at 0.7 ± 0.4 µM.

Take `C=CC(=O)N1CCN(c2ncnc3c(F)c(-c4c(O)cccc4F)c(Cl)cc23)CC1` [ARS-1620]: in assay [4], the “activity on spheroid viability (DSS)” value is “inactive”.

For the compound `O=C(NCCCCCCO)c1cc2ccccc2oc1=O` [compound 14], in assay [1], the IC50 turned out to be 18.9 ± 0.2 µM and binding was put at a Kd of 14.1 ± 0.2 µM. In assay [5], the “effect on K-RasG12V/PDE6D FLIM-FRET” value is listed as “did not block the interaction”.

In the case of `CCOC(=O)C(C)(COP(=O)(OC)OCC1CCC(CNC(=O)c2cc3ccccc3oc2=O)CC1)C(=O)CSC(C)=O` (stereo not drawn) [compound 17], the IC50 in assay [1] was 6.7 ± 0.1 µM. For the same compound, the Kd – broadly, the concentration at which binding is half-saturated – in assay [1] worked out at 4.97 ± 0.07 µM. Also, the “effect on K-RasG12V/PDE6D FLIM-FRET” value in assay [5] was “lacked in cellulo activity”. Further, the “effect on mammosphere formation (SFE)” value in assay [6] and in assay [8] was “no significant effect” throughout.

`COC(=O)c1ccc(C(=O)NCCCCOP(=O)(OC)OCC(C)(C)C(=O)CSC(C)=O)cc1N` (stereo not drawn) [compound 25]: in assay [5], the “effect on K-RasG12V/PDE6D FLIM-FRET” value is on record as “performed better than 24”. The “effect on mammosphere formation (SFE)” value in assay [6] and in assay [8] was “inactive” in each case.
